From ChEMBL document CHEMBL2073984, “Nonlinear oral pharmacokinetics of the alpha-antagonist 4-amino-5-(4-fluorophenyl)-6,7-dimethoxy-2-[4-(morpholinocarbonyl)-perhydro-1,4-diazepin-1-yl]quinoline in humans: use of preclinical data to rationalize clinical observations” (Drug Metab Dispos, 2004)

Molecular target: ATP-dependent translocase ABCB1 (Homo sapiens, UniProt P08183)
Experiment: TP_TRANSPORTER: transepithelial transport in Caco2 cells
Assay type: functional, cell-based
Details: caco-2

Sequence of ATP-dependent translocase ABCB1 (P08183 whole entry): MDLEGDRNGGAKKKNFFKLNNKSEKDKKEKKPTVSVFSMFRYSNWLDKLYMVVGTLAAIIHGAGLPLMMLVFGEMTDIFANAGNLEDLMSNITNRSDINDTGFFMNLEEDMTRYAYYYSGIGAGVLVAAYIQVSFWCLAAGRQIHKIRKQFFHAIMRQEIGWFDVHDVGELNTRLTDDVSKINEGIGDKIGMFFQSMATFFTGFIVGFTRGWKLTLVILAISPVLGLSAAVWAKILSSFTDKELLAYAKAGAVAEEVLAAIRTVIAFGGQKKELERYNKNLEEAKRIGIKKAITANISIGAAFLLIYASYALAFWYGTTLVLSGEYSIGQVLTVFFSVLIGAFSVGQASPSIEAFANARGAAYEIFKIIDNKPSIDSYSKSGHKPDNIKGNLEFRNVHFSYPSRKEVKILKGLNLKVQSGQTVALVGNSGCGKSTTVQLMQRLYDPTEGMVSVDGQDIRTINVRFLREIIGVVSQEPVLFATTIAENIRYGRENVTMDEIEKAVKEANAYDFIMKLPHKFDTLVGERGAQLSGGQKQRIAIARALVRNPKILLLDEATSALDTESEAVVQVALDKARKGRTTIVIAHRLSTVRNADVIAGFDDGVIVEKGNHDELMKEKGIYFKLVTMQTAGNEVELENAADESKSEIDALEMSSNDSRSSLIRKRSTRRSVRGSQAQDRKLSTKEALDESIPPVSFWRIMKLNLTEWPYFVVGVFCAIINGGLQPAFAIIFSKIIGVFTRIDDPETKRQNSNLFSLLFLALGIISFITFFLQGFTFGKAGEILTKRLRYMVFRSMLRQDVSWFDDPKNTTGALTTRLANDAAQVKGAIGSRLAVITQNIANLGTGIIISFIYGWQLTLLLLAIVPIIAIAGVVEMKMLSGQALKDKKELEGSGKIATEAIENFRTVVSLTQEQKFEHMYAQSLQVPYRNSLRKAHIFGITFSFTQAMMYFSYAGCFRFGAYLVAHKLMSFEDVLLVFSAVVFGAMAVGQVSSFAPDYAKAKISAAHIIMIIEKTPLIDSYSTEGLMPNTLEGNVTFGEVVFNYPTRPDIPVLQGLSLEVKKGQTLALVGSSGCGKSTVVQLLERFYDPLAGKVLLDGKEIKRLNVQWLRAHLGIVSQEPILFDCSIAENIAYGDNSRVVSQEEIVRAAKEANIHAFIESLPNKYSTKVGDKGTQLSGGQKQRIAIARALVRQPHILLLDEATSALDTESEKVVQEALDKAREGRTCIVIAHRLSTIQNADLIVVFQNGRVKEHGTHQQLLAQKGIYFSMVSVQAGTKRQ

Activity: substrate [+]
SMILES: COc1cc2nc(N3CCCN(C(=O)N4CCOCC4)CC3)cc(N)c2c(-c2ccc(F)cc2)c1OC
